Results on 1 compound are retold here after patent US9517223B2, “Methods to treat neurodegenerative diseases” (Children's Medical Center Corporation, priority 2012, dated 2016).

The conditions of data set [1]: mice, 10 mg/kg IP injection for several weeks; cited from earlier work.
Data set [2] relates to ALS patient-derived motor neurons (39b). Kind of data set: Extracellular MEA recording of spontaneous firing, SOD1 A4V ALS motor neurons. The note with it: retigabine 10 μM; two additional MEAs from separate differentiations.

In the case of `CCOC(=O)Nc1ccc(NCc2ccc(F)cc2)cc1N` [Retigabine], the side effects entry in data set [1] is recorded as “without apparent side effects”. In addition, in data set [2], the “percentage of active neurons blocked (spontaneous firing)” value is reported as 100%.
